Data published in patent US9629823B2, “Composition for promoting collagen production, for promoting elastin production and/or for promoting keratinocyte migration and usage therefor” (PUBLIC UNIVERSITY CORPORATION OSAKA CITY UNIVERSITY, priority 2013, dated 2017).

Legend:
[1] = test system: human normal skin-derived keratinocyte HaCaT cells; experiment: Scratch (wound healing) assay of keratinocyte migration; assay type: cell-based; settings: 24 hours, control = 100
Description: Cells of human normal skin-derived keratinocyte HaCaT cells were inoculated at a density of 5.0×10^5 cells/dish in a plastic dish having a diameter of 35 mm with a mark on the bottom and cultured until they reached confluence in a 5% CO2 incubator at 37° C. The culture medium used was Dulbecco's modified Eagle's medium (DMEM: Nissui Pharmaceutical Co., Ltd.) containing 10% fetal bovine serum (FBS: Nichirei Biosciences, Inc.), penicillin (50 units/ml, Meiji Co., Ltd.) and streptomycin ([…], Meiji Co., Ltd.). The medium was replaced every two days.
After culturing the cells until they reached confluence, cells in the dish were scraped with a chip and a linear wound pattern was formed therewith. Immediately thereafter, the wound pattern was analysed under an inverted microscope (OLYMPUS IX-70: Olympus Corporation) and photographed. […] The wound pattern was then analysed with OLYMPUS IX-70 and photographed. […]
Based on the obtained photographic images, the width of wound patterns in the samples was measured. […] Based on the measurement results, the repair rate in the region of the wound by sesaminol was calculated. The repair rates for the samples calculated are as follows with the rate for the control being 100.

[2] = test system: type I collagen in CCD-10595K cells; experiment: Collagen production by immunohistochemistry (anti-type I collagen) in fibroblasts; assay type: cell-based, human; settings: sesaminol 15 or 30 μg/ml, 24 hours
Description: Cells of human normal skin-derived fibroblast CCD-10595K strain (purchased from DS Pharma Biomedical Co., Ltd.) were inoculated at a density of 3.0×10^4 cells/ml in a plastic dish having a diameter of 35 mm and cultured in a 5% CO2 incubator at 37° C. The medium used was the same medium as in Example 1. After 1 or 2 days, the medium was replaced with the medium containing the sesaminol solution so as to contain sesaminol at a final concentration of 15 or 30 μg/ml and the cells were incubated for 24 hours in a 5% CO2 incubator at 37° C. As a control, incubation was carried out using the medium without sesaminol solution.
After the incubation, cells were washed three times with PBS. Cells were then fixed in 4% paraformaldehyde and stored overnight at 4° C. The fixed cells were treated with 0.1% Triton®-X100 diluted in PBS for 5 minutes and washed with PBS for 5 minutes. The treated cells were blocked in 3% H2O2 and washed with PBS for 5 minutes. The cells were further blocked in 10% normal goat serum and washed with PBS for 5 minutes. A rabbit anti-type I collagen antibody (LSL) diluted 200-fold in PBS was added to the cells on a slide glass which were then incubated for 1 hour and washed with PBS for 5 minutes. […] The prepared slide was analysed on OLYMPUS IX-70 and images of stained cells were obtained.

[3] = test system: type I collagen in CCD-10595K cells; experiment: Collagen production by western blot analysis in fibroblasts; assay type: cell-based, human; settings: sesaminol 15 or 30 μg/ml, 24 hours
Description: (§1) Cells of human normal skin-derived fibroblast CCD-10595K cells (purchased from DS Pharma Biomedical Co., Ltd.) were inoculated in a plastic dish having a diameter of 35 mm and cultured until they reached confluence in a 5% CO2 incubator at 37° C. Thereafter, the medium was replaced with the medium containing the sesaminol solution so as to contain sesaminol at a final concentration of 15 or 30 μg/ml and the cells were incubated for 24 hours in a 5% CO2 incubator at 37° C. The medium used was the same medium as in Example 1. The medium was replaced every two days until the cells reached confluence. As a control, incubation was carried out using the medium without sesaminol solution.
(§2) After the incubation, cells were washed twice with PBS and collected into a 1.5-ml tube using a cell scraper. […] An aliquot of the collected supernatant was subjected to protein quantification using Serva Blue G (Serva Electrophoresis GmbH) based on the absorbance at 595 nm in order to calculate the amount of sample applied to electrophoresis.
(§3) Equal volumes of the supernatant containing cell lysate and a sample buffer were mixed and heated at 90° C. for 5 minutes to prepare a sample for electrophoresis. […] The ratio of the band intensity of type I collagen or elastin relative to the band intensity of β-actin was calculated for the samples.

[4] = test system: elastin in CCD-10595K cells; experiment: Elastin production by western blot analysis in fibroblasts; assay type: cell-based, human; settings: sesaminol 15 or 30 μg/ml, 24 hours
Description: as §1, §2, §3

[5] = test system: various cell lines used in Examples; experiment: Toxicity and viability check on the cell lines used in Examples; assay type: cell-based; settings: sesaminol solution (3.0 mg/ml in DMSO)
Description: The highly concentrated sesaminol solution was dissolved in dimethyl sulphoxide (DMSO) to prepare a sesaminol solution (3.0 mg/ml) to be used in Examples.

Oc1cc2c(cc1C1OCC3C(c4ccc5c(c4)OCO5)OCC13)OCO2 (stereo not shown) [sesaminol]
repair rate in the region of the wound (control being 100) ([1]; sesaminol 15 μg/ml): 121.7±25.6
repair rate in the region of the wound (control being 100) ([1]; sesaminol 30 μg/ml): 139.1±20.6
type I collagen staining intensity vs control (FIG. 2) [2]: stained more intensely than the control
expression level of collagen (band intensity ratio to β-actin, control = 1; FIG. 3) [3]: increased
expression level of elastin (band intensity ratio to β-actin, control = 1; FIG. 4) [4]: increased
effect on cell viability [5]: did not affect viability
toxicity to cell lines [5]: not toxic
